{"source": "patent US20240156902A1", "about": "“METHODS OF TREATING NEURODEGENERATIVE DISORDERS WITH INTRANASAL NF-KAPPAB ESSENTIAL MODIFIER (NEMO)-BINDING DOMAIN (NBD) PEPTIDE” (Rush University Medical Center, priority 2021, published 2024)", "key": {"[1]": {"tested_on": "NF-κB", "assay": "NF-κB activation in nigra of PFF-seeded A53T mice (acetylated p65 in microglia)", "assay_type": "in vivo, mouse", "details": "intranasal 0.1 mg/kg/d for 1 month", "description": "(§1) Following 2 months of surgery, animals received wild type NBD (wtNBD) at a dose of 0.1 mg/kg body weight/day intranasally. After 1 month of wtNBD treatment, behavioral analyses were performed followed by immunohistochemistry and different biochemical experiments.\nFIG. 2A and FIG. 2B show the results following intranasal administration of wtNBD peptide inhibiting NF-κB activation in the nigra of PFF-seeded mouse model of Lewy body diseases. A53T transgenic mice were seeded with PFF bilaterally and following 2 months of brain surgery, animals were given intranasal administration of 0.1 mg/kg wtNBD peptide daily. Activation of NF-κB in nigra was monitored by evaluating the level of acetylated (K310) p65 in Ibal+ve microglia in different groups of mice. Marked up-regulation of microglial acetylated p65 level in the SN of PFF-seeded mice was found compared to the PBS-injected mice (FIG. 2A and FIG. 2B). […] Statistical significance was determined by one-way ANOVA followed by Tukey's multiple comparison tests. *p<0.05, ***p<0.001 indicate significance compared to respective groups. Values are given as mean±SEM (n=4 per group). […]\n(§2) Following 1 month of wtNBD administration, NF-κB activation in substantia nigra (SN) and spreading of α-syn in both SN and motor cortex were monitored. […]"}, "[2]": {"tested_on": "α-syn", "assay": "α-syn spreading from striatum to nigra and motor cortex in PFF-seeded A53T mice (pSyn129 immunostaining, α-syn immunoblot)", "assay_type": "in vivo, mouse", "details": "intranasal 0.1 mg/kg/d for 1 month", "description": "as §1\nPropagation of α-syn in PFF-seeded A53T mouse brain was monitored in SN by pSyn129 immunostaining and relative intensity measurement (FIG. 3A, FIG. 3B) and also by immunoblotting total α-syn in Triton X-100 soluble and insoluble fractions (FIG. 3C, FIG. 3D). The ratio of α-syn to actin is shown in the diagrams (FIG. 3E, FIG. 3F). Level of pSyn129 in motor cortex was assessed by immunohistochemistry (FIG. 3G, FIG. 3H). Two sections from each brain were used for immunostaining and pSyn129 specific intensity was analysed by Fiji. One-way ANOVA followed by Tukey's multiple comparison tests was conducted for statistical analyses. **p<0.01, ***p<0.001 indicate significance compared to respective groups. Values are given as mean±SEM (n=4 animals per group).\n(§3) The wtNBD peptide (SEQ ID NO: 4) was solubilized in normal saline in such a way so that each mouse receives 0.1 mg/kg of body weight NBD peptide in 2.5 μl of saline. […]\nas §2"}, "[3]": {"tested_on": "dopaminergic neurons", "assay": "Parkinsonian pathology in PFF-seeded A53T mice (TH immunohistochemistry, TH immunoblot, striatal neurotransmitters)", "assay_type": "in vivo, mouse", "details": "intranasal 0.1 mg/kg/d for 1 month", "description": "(§4) FIG. 4A-L depicts the results following intranasal administration of wtNBD peptide reducing Parkinsonian pathology in PFF-seeded mouse model of Lewy body diseases. PFF-seeded A53T animals were given intranasal administration of 0.1 mg/kg wtNBD peptide daily for one month Parkinsonian pathology was evaluated by TH immunohistochemistry of nigral sections (FIG. 4A), immunoblotting of total TH level in SN (FIG. 4B and FIG. 4C), assessing striatal level of dopamine (DA), and its metabolites 3,4-dihydroxyphenyl acetate (DOPAC), homovanillic acid (HVA) (FIG. 4D-F). Behavioral analyses of animals were performed by open field test (FIG. 4G), where movement parameters such as distance (FIG. 4H), velocity (FIG. 4I), cumulative duration (FIG. 4J) and rearings (FIG. 4K) were recorded. Feet movement was analysed by rotarod test (FIG. 4L). Statistical significance was determined by one-way ANOVA followed by Tukey's multiple comparison tests. *p<0.05, **p<0.01, ***p<0.001 indicate significance compared to respective groups. Values are given as mean±SEM (n=4 per group).\nThe wtNBD peptide (SEQ ID NO: 4) was solubilized in normal saline in such a way so that each mouse receives 0.1 mg/kg of body weight NBD peptide in 2.5 μl of saline. Then 2.5 μl of wtNBD solution was administered in mice through each nostril every day for a total of 30 days. Mice were hold in supine condition while administering wtNBD solution. See Rangasamy et al. “Selective disruption of TLR2-MyD88 interaction inhibits inflammation and attenuates Alzheimer's pathology” (2018) J Clin Invest 128, 4297-4312. Intranasal treatment was started for preformed α-syn fibril (PFF) or PBS injected A53T animals at the age of 5 months (2 months following the brain surgery) for the next 30 days. Aged A53T animals (8 months old) were also treated with wtNBD peptides for 1 month followed by behavioural tests and other experiments at the age of 9 months.\nNext, the effect of intranasal wtNBD on PFF-induced Parkinsonian pathologies was monitored. […] Locomotor deficit was also evident by rotarod analysis (FIG. 4L)."}, "[4]": {"tested_on": "PFF-seeded A53T transgenic mice", "assay": "Locomotor activities of PFF-seeded A53T mice (open field test, rotarod)", "assay_type": "in vivo, mouse", "details": "intranasal 0.1 mg/kg/d for 1 month", "description": "as §4, §3\nNext, the effect of intranasal wtNBD on PFF-induced Parkinsonian pathologies was monitored. […]"}, "[5]": {"details": "in vivo; cited from earlier work"}, "[6]": {"tested_on": "NF-κB", "details": "cultured brain cells; cited from earlier work"}, "[7]": {"tested_on": "NF-κB", "details": "in vivo in the brain; cited from earlier work"}}, "note": "Read-outs that look alike come from different tables or passages of the source."}
{"substance": "DRQIKIWFQNRRMKWKKLDWSWL (DRQIKWFQNRRMKWKKLDWSWL) [wtNBD]", "values": [{"measurement": "microglial acetylated (K310) p65 level in the SN", "setting": "[1]", "value": "significantly decreased"}, {"measurement": "level of pSyn129 in nigral neurons (relative optical density in SN)", "setting": "[2]; PFF-seeded A53T mice", "value": "drastically reduced"}, {"measurement": "accumulation of pSyn129 in cortical neurons (motor cortex)", "setting": "[2]; compared to saline-treated PFF-seeded mice", "value": "reduced accumulation"}, {"measurement": "nigral TH neurons", "setting": "[3]", "value": "significantly protected"}, {"measurement": "nigral TH protein level", "setting": "[3]", "value": "significantly protected"}, {"measurement": "striatal DA level", "setting": "[3]", "value": "significantly protected"}, {"measurement": "movement deficits (open field distance, velocity, cumulative duration, rearing; rotarod)", "setting": "[4]", "value": "significantly inhibited"}, {"measurement": "entry into the brain", "setting": "[5]", "value": "enters into the brain"}]}
{"substance": "LDWSWL [truncated hexapeptide of the wtNBD]", "values": [{"measurement": "block of the function of NF-κB", "setting": "[6]", "value": "sufficient to block"}, {"measurement": "block of the function of NF-κB", "setting": "[7]", "value": "sufficient to block"}]}
